Columns and labels:
[1] = molecular target: T1, human CRTH2 receptor (Homo sapiens, UniProt Q9Y5Y4, V204A); test: Receptor binding assay: [3H]PGD2 competition on whole COS-7 cells transfected with CRTH2; settings: 0.1 nM [3H]PGD2, whole cells, 3 h at 4° C.
T1 construct: expressed in transfected cells; host or cells: COS-7 cells, transient, pcDNA3.1(+)
T1 sequence (Q9Y5Y4 1-395 V204A): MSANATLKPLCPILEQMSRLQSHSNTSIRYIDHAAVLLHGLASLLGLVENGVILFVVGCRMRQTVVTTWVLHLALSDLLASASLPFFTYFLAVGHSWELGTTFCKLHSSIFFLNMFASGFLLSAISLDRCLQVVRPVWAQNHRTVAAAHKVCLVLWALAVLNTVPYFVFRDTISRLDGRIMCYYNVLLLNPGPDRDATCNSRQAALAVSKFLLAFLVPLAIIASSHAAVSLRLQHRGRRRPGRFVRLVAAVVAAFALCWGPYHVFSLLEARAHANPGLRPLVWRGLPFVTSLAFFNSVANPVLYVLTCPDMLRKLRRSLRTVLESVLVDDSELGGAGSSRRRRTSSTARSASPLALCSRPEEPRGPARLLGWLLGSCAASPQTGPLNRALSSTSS
Description: (§1) Generation/origin of the cDNA Constructs. The coding sequence of the human CRTH2 receptor (genbank accession no NM_004778) was amplified by PCR from a human hippocampus cDNA library and inserted into the pcDNA3.1(+) expression vector (invitrogen) via 5′ HindIII and 3′ EcoRI. To generate a CRTH2-Renilla luciferase (CRTH2-Rluc) fusion protein, the CRTH2 coding sequence without a STOP codon and Rluc were amplified, fused in frame by PCR and subcloned into the pcDNA3.1(+)Zeo expression vector (invitrogen). Human β-arrestin2 (β-arr2) N-terminally tagged with GFP^2 (βarr2-GFP^2) and Renilla luciferase were purchased from BioSignal Packard Inc, (Montreal, Canada). The sequence identity of the construct was verified by restriction endonuclease digests and sequencing in both directions on an ABI Prism (Applied Biosystems, Foster City, Calif.).
(§2) Cell Culture and Transfection. COS-7 cells were grown in Dulbecco's modified Eagle's medium (DMEM) 1885 supplemented with 10% fetal bovine serum, 100 units/ml penicillin, […] streptomycin, and kept at 37° C. in a 10% CO2 atmosphere. HEK293 cells were maintained in Minimum Essential medium (MEM) supplemented with 10% (v/v) heat inactivated fetal calf serum (HIFCS), 2 mM Glutamax™-I, 1% non essential amino acids (NEAA), 1% sodium pyruvate and 10 μg/ml gentamicin. For binding experiments, COS7 cells were transiently transfected with the CRTH2 receptor using a calcium phosphate-DNA coprecipitation method with the addition of chloroquine (as described by Hoist et al., 2001*). To perform the functional Bioluminescence Resonance Energy Transfer (BRET) assays, a HEK293 cell clone stably expressing βarr2-GFP^2 and CRTH2-Rluc was generated (CRTH2-HEK293 cells).
Binding assay. 24 h after transfection COS-7 cells were seeded into 96 well plates at a density of 30.000 cells/well. Competition binding experiments on whole cells were then performed about 18-24 h later using 0.1 nM [^3H]PGD2 (NEN, 172 Ci/mmol) in a binding buffer consisting of HBSS (GIBCO) and 10 mM HEPES. Competing ligands were diluted in DMSO which was kept constant at 1% (v/v) of the final incubation volume. Total and nonspecific binding were determined in the absence and presence of 10 μM PGD2. Binding reactions were routinely conducted for 3 h at 4° C. and terminated by 2 washes (100 μl each) with ice cold binding buffer. Radioactivity was determined by liquid scintillation counting in a TOPCOUNTER (Packard) following over night incubation in Microscint 20. Stable HEK293 cells were seeded at a density of 30.000 cells/well 18-24 h prior to the binding assay which was performed essentially as described for COS7 cells above. Determinations were made in duplicates.
(§3) Curve analysis was performed with the GraphPadPrism software 3.0 (Graphpad Prism Inc., San Diego, USA) and IC50 values were calculated as a measure of the antagonistic potencies.

[2] = molecular target: T2, human CRTH2-Rluc (Homo sapiens, UniProt Q9Y5Y4, V204A); test: Functional antagonist BRET assay on HEK293 cells stably expressing CRTH2-Rluc and GFP2-β-arr2; format: cell-based; settings: antagonist incubated 15 minutes before agonist, read-out: Antag. IC50
T2 construct: expressed in transfected cells
T2 sequence (Q9Y5Y4 1-395 V204A): T1 sequence (Q9Y5Y4 1-395 V204A)
Description: as §1, §2
BRET assay. Functional BRET assays were performed on HEK293 cells stably expressing human CRTH2-Rluc and GFP^2-β-arr2. Prior to their use in the BRET assay cells were detached and re-suspended in D-PBS with 1000 mg/L L-Glucose at a density of 2×10^6 cells/mL. DeepBlueC™ was diluted to 50 μM in D-PBS with 1000 mg/L L-Glucose (light sensitive). 100 μL of cell suspension was transferred to wells in a 96-well microplate (white OptiPlate) and placed in the Mithras LB 940 instrument (BERTHOLD TECHNOLOGIES, Bad Wildbad, Germany). 12 μL/well agonist was then injected by injector 1 and 10 μL/well DeepBlueC™ was injected simultaneously by injector 2. Five seconds after the injections the light output from the well was measured sequentially at 400 nm and 515 nm, and the BRET signal (mBRET ratio) was calculated by the ratio of the fluorescence emitted by GFP^2-β-arr2 (515 nm) over the light emitted by the receptor-Rluc (400 nm). Antagonists were added before placing the microplates into the Mithras LB 940 and allowed to incubate for 15 minutes prior to the addition of agonist and DeepBlueC™. Compounds were dissolved in DMSO and the final DMSO concentration was kept constant at 1% in the assay.
as §3

Compound	IC50 [1] [µM]	IC50 [2] [µM]
O=C(O)Cc1sc(C(c2ccccc2)c2ccccc2)nc1-c1ccc(Cl)cc1 [Compound A1, [2-Benzhydryl-4-(4-chloro-phenyl)-thiazol-5-yl]-acetic acid]	< 0.5	< 0.5
O=C(O)Cc1sc(C(c2ccccc2)c2ccccc2)nc1-c1ccc(F)cc1 [Compound A4, [2-Benzhydryl-4-(4-fluoro-phenyl)-thiazol-5-yl]-acetic acid]	< 0.5	< 0.5
O=C(O)Cc1sc(C(Cc2ccccc2)c2ccccc2)nc1-c1ccc(Cl)cc1 (centres unmarked) [Compound A5, [4-(4-Chloro-phenyl)-2-(1,2-diphenyl-ethyl)-thiazol-5-yl]-acetic acid]	< 0.5	0.5 to 5
CCC(c1ccccc1)c1nc(-c2ccc(Cl)cc2)c(CC(=O)O)s1 (centres unmarked) [Compound A6, [4-(4-Chloro-phenyl)-2-(1-phenyl-propyl)-thiazol-5-yl]-acetic acid]	< 0.5	–
O=C(O)Cc1sc(C(Cc2ccccc2)c2ccc(Cl)cc2)nc1-c1ccc(F)cc1 (centres unmarked) [Compound A7, [2-[1-(4-Chloro-phenyl)-2-phenyl-ethyl]-4-(4-fluoro-phenyl)-thiazol-5-yl]-acetic acid]	< 0.5	< 0.5
O=C(O)Cc1sc(C(c2ccccc2)c2ccc(Cl)cc2)nc1-c1ccc(Cl)cc1 (centres unmarked) [Compound A8, {4-(4-Chloro-phenyl)-2-[(4-chloro-phenyl)-phenyl-methyl]-thiazol-5-yl}-acetic acid]	< 0.5	< 0.5
O=C(O)Cc1sc(C(Cc2ccccc2)c2ccc(Cl)cc2)nc1-c1ccc(Cl)cc1 (centres unmarked) [Compound A9, {4-(4-Chloro-phenyl)-2-[1-(4-chloro-phenyl)-2-phenyl-ethyl]-thiazol-5-yl}-acetic acid]	< 0.5	0.5 to 5
O=C(O)Cc1sc(C(c2ccccc2)c2ccc(Cl)cc2)nc1-c1ccc(F)cc1 (centres unmarked) [Compound A10, [2-[(4-Chloro-phenyl)-phenyl-methyl]-4-(4-fluoro-phenyl)-thiazol-5-yl]-acetic acid]	< 0.5	< 0.5
O=C(O)Cc1sc(C(c2ccccc2)c2ccccc2)nc1-c1ccccc1 [Compound A11, (2-Benzhydryl-4-phenyl-thiazol-5-yl)-acetic acid]	0.5 to 5	< 0.5
COc1ccc(-c2nc(C(c3ccccc3)c3ccccc3)sc2CC(=O)O)cc1 [Compound A12, [2-Benzhydryl-4-(4-methoxy-phenyl)-thiazol-5-yl]-acetic acid]	< 0.5	0.5 to 5
O=C(O)Cc1sc(C(c2ccccc2)c2ccc(F)cc2)nc1-c1ccc(Cl)cc1 (centres unmarked) [Compound A13, {4-(4-Chloro-phenyl)-2-[(4-fluoro-phenyl)-phenyl-methyl]-thiazol-5-yl}-acetic acid]	< 0.5	< 0.5
O=C(O)Cc1sc(C(c2ccc(F)cc2)c2ccc(F)cc2)nc1-c1ccc(F)cc1 [Compound A14, [2-[Bis-(4-fluoro-phenyl)-methyl]-4-(4-fluoro-phenyl)-thiazol-5-yl]-acetic acid]	< 0.5	< 0.5
COc1ccc(C(c2ccccc2)c2nc(-c3ccc(F)cc3)c(CC(=O)O)s2)cc1 (centres unmarked) [Compound A15, {4-(4-Fluoro-phenyl)-2-[(4-methoxy-phenyl)-phenyl-methyl]-thiazol-5-yl}-acetic acid]	< 0.5	< 0.5
COc1ccc(C(c2ccccc2)c2nc(-c3ccc(Cl)cc3)c(CC(=O)O)s2)cc1 (centres unmarked) [Compound A16, {4-(4-Chloro-phenyl)-2-[(4-methoxy-phenyl)-phenyl-methyl]-thiazol-5-yl}-acetic acid]	< 0.5	< 0.5
O=C(O)Cc1sc(C(c2ccccc2)c2ccc(F)c(F)c2)nc1-c1ccc(Cl)cc1 (centres unmarked) [Compound A17, {4-(4-Chloro-phenyl)-2-[(3,4-difluoro-phenyl)-phenyl-methyl]-thiazol-5-yl}-acetic acid]	< 0.5	> 5
O=C(O)Cc1sc(C(c2ccccc2)c2ccc(F)c(F)c2)nc1-c1ccc(F)cc1 (centres unmarked) [Compound A18, [2-[(3,4-Difluoro-phenyl)-phenyl-methyl]-4-(4-fluoro-phenyl)-thiazol-5-yl]-acetic acid]	< 0.5	< 0.5
O=C(O)Cc1sc(C(NC(=O)c2ccc(C(F)(F)F)cc2)c2ccccc2)nc1-c1ccc(F)cc1 (centres unmarked) [Compound A19, {4-(4-Fluoro-phenyl)-2-[phenyl-(4-trifluoromethyl-benzoylamino)-methyl]-thiazol-5-yl}-acetic acid]	< 0.5	> 5
O=C(O)Cc1sc(C(c2ccccc2)c2ncccc2Cl)nc1-c1ccc(Cl)cc1 (centres unmarked) [Compound A29, {4-(4-Chloro-phenyl)-2-[(3-chloro-pyridin-2-yl)-phenyl-methyl]-thiazol-5-yl}-acetic acid]	< 0.5	–
COc1ccc(C(c2ccccn2)c2nc(-c3ccc(F)cc3)c(CC(=O)O)s2)cc1 (centres unmarked) [Compound A30, {4-(4-Fluoro-phenyl)-2-[(4-methoxy-phenyl)-pyridin-2-yl-methyl]-thiazol-5-yl}-acetic acid]	< 0.5	–
O=C(O)Cc1sc(C(c2ccccc2)C2CCCCC2)nc1-c1ccc(Cl)cc1 (centres unmarked) [Compound A32, [4-(4-Chloro-phenyl)-2-(cyclohexyl-phenyl-methyl)-thiazol-5-yl]-acetic acid]	0.5 to 5	–
O=C(O)Cc1sc(Cc2ccccc2Oc2ccccc2)nc1-c1ccc(Cl)cc1 [Compound A35, [4-(4-Chloro-phenyl)-2-(2-phenoxy-benzyl)-thiazol-5-yl]-acetic acid]	0.5 to 5	–
CC(=O)Nc1cccc(-c2ccccc2Cc2nc(-c3ccc(F)cc3)c(CC(=O)O)s2)c1 [Compound A39, [2-(3′-Acetylamino-biphenyl-2-ylmethyl)-4-(4-fluoro-phenyl)-thiazol-5-yl]-acetic acid]	0.5 to 5	–
COc1ccccc1-c1ccccc1Cc1nc(-c2ccc(F)cc2)c(CC(=O)O)s1 [Compound A41, [4-(4-Fluoro-phenyl)-2-(2′-methoxy-biphenyl-2-ylmethyl)-thiazol-5-yl]-acetic acid]	< 0.5	–
N#Cc1cccc(-c2ccccc2Cc2nc(-c3ccc(F)cc3)c(CC(=O)O)s2)c1 [Compound A43, [2-(3′-Cyano-biphenyl-2-ylmethyl)-4-(4-fluoro-phenyl)-thiazol-5-yl]-acetic acid]	< 0.5	–
O=C(O)Cc1sc(Cc2ccccc2-c2cccc(OC(F)(F)F)c2)nc1-c1ccc(F)cc1 [Compound A44, [4-(4-Fluoro-phenyl)-2-(3′-trifluoromethoxy-biphenyl-2-ylmethyl)-thiazol-5-yl]-acetic acid]	< 0.5	–

From patent publication US20080119456A1, “Substituted Thiazoleacetic Acid as Crth2 Ligands” (priority 2004, published 2008)
